Tests used:
[1] = test system: HPDE (non-transformed human pancreatic ductal epithelial cells); assay: Cell proliferation assay, non-transformed pancreatic ductal cells; format: cell-based; conditions: FIG. 30A/30B
Procedure: (§1) Cells were plated in 24-well plates at 2,000 cells per well in 0.5 mL of media. To deprive Gln, cells were plated in complete culture medium (10 mM glucose and 2 mM Gln) which was exchanged with Gln-free culture medium supplemented with 10% dFBS the following day. Cell culture media was not changed throughout the course of the experiment. At the indicated time points, cells were fixed in 10% formalin and stained with 0.1% crystal violet. Dye was extracted with 10% acetic acid and the relative proliferation was determined by OD at 595 nm.

[2] = test system: IMR90 (human diploid fibroblasts); assay: Cell proliferation assay, diploid fibroblasts; format: cell-based; conditions: FIG. 30A/30B
Procedure: as §1

[3] = test system: PDAC cells; assay: Cell proliferation assay (crystal violet); format: cell-based, human; conditions: for PDAC growth (relative growth): 8988T cells treated with inhibitor, FIG. 7A/7B
Procedure: as §1

[4] = test system: PDAC cells; assay: Clonogenic assay; format: cell-based, human; conditions: for sensitivity of clonogenic growth upon Kras knockdown: 8988T cells expressing shKras; for sensitivity of clonogenic growth upon Kras knockdown / clonogenic growth: FIG. 34; for clonogenic growth: 8988T cells, control shRNA; for rescue of clonogenic growth upon Gln deprivation: Gln-free medium supplemented with metabolite, FIG. 5, 22, 26, 29
Procedure: Cells were plated in 6-well plates at 300 cells per well in 2 mL of media. Cell culture media was not changed throughout the course of the experiment. After 7-10 days, colonies were fixed in 80% methanol and stained with 0.2% crystal violet.

[5] = test system: PDAC cells (8988T, Panc1); assay: Sensitization of PDAC cells to ROS / cell viability with GLS inhibitors (Cell Titer Glo); format: cell-based, human; conditions: for relative cell viability (growth suppressive effect): 8988T or Panc1 cells, GLS inhibitor alone, FIG. 36; for relative cell viability, GLS inhibitor combined with H2O2: 8988T, Panc1, 968 or BPTES (100 nM) with increasing H2O2, FIG. 37, 38
Procedure: PDAC cell lines were plated into 96-well plates at 10^3 cells/well in 200 μL of growth medium. The following day, growth medium was replaced with that containing GLS inhibitors and/or H2O2. Parallel plates were analyzed at 3, 6 and 9 days by Cell Titer Glo analysis (Promega), per the manufacturer's instruction. […] BPTES was a kind gift from Jaime Escobedo (Forma Therapeutics, Watertown, Mass.).

[6] = test system: 8988T cells; assay: ROS quantification (DCFDA assay, flow cytometry); format: cell-based, human
Procedure: The DCFDA assay was performed 24 hr after supplementing Gln-free media with either OAA (4 mM) or dimethyl malate (4 mM). Cells were incubated with 5 μM 2′,7′-dichlorodihydrofluorescein diacetate (DCFDA, Invitrogen) for 30 min. Excess DCFDA was removed by washing the cells twice with PBS, and labeled cells were then trypsinized, rinsed, and resuspended in PBS. Oxidation of DCFDA to the highly fluorescent 2′,7′-dichloro-fluorescein (DCF) is proportionate to ROS generation and was analyzed by flow cytometry.

What does the source list for `NOCC(=O)O` [AOA, aminooxyacetate]?
growth (relative growth) of HPDE cells [1]: no significant effect on growth; growth (relative growth) of IMR90 cells [2]: no significant effect on growth; PDAC growth (relative growth) [3]: robustly inhibited the growth; sensitivity of clonogenic growth upon Kras knockdown [4]: significantly more resistant; clonogenic growth [4]: significantly inhibited clonogenic growth

For `O=C(Cc1ccccc1)Nc1nnc(CCSCCc2nnc(NC(=O)Cc3ccccc3)s2)s1` [BPTES], which “relative cell viability (growth suppressive effect)” value [5] is on record?
The value was “growth suppressive effect”.

And the “relative cell viability, GLS inhibitor combined with H2O2” value [5]?
The value was “dramatically augmented”.

How did the “growth (relative growth) of HPDE cells” value [1] turn out when `O=C(O[C@@H]1Cc2c(O)cc(O)cc2O[C@@H]1c1cc(O)c(O)c(O)c1)c1cc(O)c(O)c(O)c1` [EGCG, Epigallocatechin Gallate] was run?
The value was “significantly sensitive”.

What about the “PDAC growth (relative growth)” value [3] of the same molecule?
The value was “little effect”.

And the “sensitivity of clonogenic growth upon Kras knockdown” value [4]?
Its value is “sensitive”.

What about the clonogenic growth [4] of the same molecule?
Its clonogenic growth is “minimal effects”.

For `N[C@@H](CCC(=O)N[C@@H](CS)C(=O)NCC(=O)O)C(=O)O` [GSH, reduced glutathione], which “rescue of clonogenic growth upon Gln deprivation” value [4] is on record?
The value was “dramatically rescued the clonogenic survival”.

What does the source list for `CN(C)c1ccc(C2Nc3ccc4ccccc4c3C3=C2C(=O)CC(C)(C)C3)cc1Br` (stereo not shown) [compound 968]?
relative cell viability (growth suppressive effect) [5]: growth suppressive effect; relative cell viability, GLS inhibitor combined with H2O2 [5]: dramatically augmented

`COC(=O)CCC(=O)C(=O)OC` [dimethyl αKG] was tested. Which “rescue of clonogenic growth upon Gln deprivation” value [4] did it give?
Its value is “did not restore growth”.

Which “ROS levels (DCFDA signal) upon GOT1 knockdown” value ([6]; 8988T cells expressing shGOT1, medium supplementation) does the source give for `COC(=O)CC(O)C(=O)OC` (stereo not shown) [dimethyl-malate] here?
The value was “rescued the oxidative stress”.

What about the “ROS levels (DCFDA signal) upon Gln deprivation” value ([6]; Gln-free media supplemented 24 hr, 4 mM) of the same molecule?
Its value is “rescued the oxidative stress”.

What about the “rescue of PDAC cell growth upon GOT1 knockdown” value ([3]; 8988T cells expressing shGOT1, 4 mM supplement, FIG. 28) of the same molecule?
Its value is “partially rescue PDAC cell growth”.

And the “rescue of cell proliferation upon Gln deprivation” value ([3]; Gln-free medium supplemented with metabolite, FIG. 6, 27)?
Its value is “partially rescue PDAC cell growth”.
